One compound from patent US7732599B2, “Process for preparing tetrahydrobiopterin and analogs of tetrahydrobiopterin” (BioMarin Pharmaceutical Inc., priority 2003, dated 2010) can be followed below.

The data set in a line: Solubility in the reaction solvent dimethylaminoacetate at room temperature. The format is physicochemical. As to conditions: described as low solubility. The procedure: The conversion of the primary hydroxyl of L-Neopterin to a thioether was performed to prepare 6-((1R,2R)-1,2-dihydroxy-3-phenylthiopropyl)-2-[(methylethyl)amino]-3-hydropteridin-4-one (the compound labeled “15” in FIG. 4). To a flask containing 50 grams of 6-((2S,1R)-1,2,3-trihydroxypropyl)-2-[(1Z)-1-aza-2-(dimethylamino)vinyl]-3-hydropteridin-4-one (DMA-Neopterin, the compound labeled “6” in FIG. 2) and 400 ml of dimethylaminoacetate was added to the flask. To this stirring mixture 1 molar equivalent of diphenyl disulfide and tributylphosphine were added to the flask. […] It is believed that the thioether product is more soluble in dimethylaminoacetate. The reaction mixture was allowed to was allowed to stir for 4 hours at room temperature. Nine grams of the thioether product was isolated.

With `CN(C)C=Nc1nc2ncc([C@@H](O)[C@@H](O)CO)nc2c(=O)[nH]1` [DMA-Neopterin, 6-((2S,1R)-1,2,3-trihydroxypropyl)-2-[(1Z)-1-aza-2-(dimethylamino)vinyl]-3-hydropteridin-4-one], the solubility in dimethylaminoacetate result is “approximately 3.5 mg/ml”.
